Measurements from patent US10240133B2, “ERK-derived peptides and uses thereof” (Yeda Research and Development Co. Ltd., priority 2013, dated 2019).

Legend:
B-Raf mutated melanomas = experiment: Apoptosis (TUNEL, PARP-1 cleavage); type: cell-based; conditions: 24 h
Method: FIGS. 5A-5D illustrate that the EPE peptide leads to apoptosis of B-Raf mutant cancer cells. (A) The EPE peptide affects the morphology of treated cells. The indicated cells were treated with either the EPE or Scr peptides, DMSO, or taxol for 72 h, and photographed by a light microscope. (B) The EPE peptide induces apoptosis in melanoma cells detected by TUNEL. The indicated cell lines were treated as in A for 24 h. Apoptosis was detected by TUNEL staining. Images were obtained by florescence microscope. (C) Quantification of B. The bar-graph represents percent of apoptotic cells calculated in 10 different fields. (D) The EPE peptide induces apoptosis of melanoma cells detected by PARP cleavage. The indicated cell lines were treated as in (A) for 24 h. Cell extracts were subjected to Western blotting with αPARP Ab.
Cells were seeded on glass cover slips in a 12-wells plate at 25% confluence with medium containing 1% of FCS. Peptides (EPE or Scr), DMSO, or U0126 in a final concentration of 10 μM, were added after 4 h (considered as time “0”). TUNEL staining was performed at 24 h after the treatment according to manufacturer instruction (Roche Applied Science, Nutley, N.J., USA). Briefly, the medium was removed and cells were fixed with 3% of paraformaldehyde (1.5 h, 23° C.). Cells were rinsed twice with PBS and permeabilized with 0.1% Triton X-100 and 0.1% sodium citrate for 2 min on ice. Cells were rinsed twice with PBS and 28 μl of TUNEL reaction mixture (25 μl of TUNEL label, 2.5 μl of TUNEL enzyme and 0.1 mg/ml of DAPI) was added directly on top of the slide, cells were incubated for 16 h in humid box at 37° C. Cover slips were rinsed three times with PBS and mounted on microscope slides. The slides were dried and then subjected to image acquisition by a florescence microscope. For morphology assay, the cells were seeded at approximately 25% confluence in 6 cm plates with medium containing 1% FCS. Peptides (EPE and Scr) or DMSO or U0126 in a final concentration of 10 μM, were added after 4 h (considered to be time 0), 24 h and 48 h. Images were obtained by a light microscope (Olympus BX51) after 72 h.

ERK = experiment: Immunohistochemistry of ERK localization in xenograft tumors; type: in vivo, mice; conditions: MDA-MB-231 and LOXIMVI xenografts, anti ERK Ab
Source text: FIGS. 10A-10B illustrate that the EPE peptide causes cytoplasmatic localization of ERK in xenografts. FIG. 10A: Photographs illustrating that EPE and Scr peptide as well as DMSO-treated MDA-MB-231 and LOXIMVI xenografts were immunostained with αgERK Ab. FIG. 10B presents bar-graphs representing number of cells with cytoplasmatic/nuclear ERK staining calculated in 10 random microscopic fields.

MDA-MB-231 xenograft = experiment: Tumor xenograft growth; type: in vivo, CD-1 nude mice; conditions: i.v. tail vein, 3 times a week
Method: (§1) FIGS. 6A-6B illustrate that the EPE peptide prevents the growth of human tumor xenografts. CD-1 nude mice were inoculated with MDA-MB-231, LOXIMVI and HCT-116 cells, and SKID mice were inoculated with A2352 cells. Upon tumors establishment, the mice were treated intravenously with the DMSO as well as EPE or Scr peptides in the indicated doses, 3 times a week. The results are averages of 5 mice in each experimental group. The X, Y, Z dimensions of the tumors were measured with a caliper, and the volume was calculated accordingly. The significance of all experiments was at least P<0.001. (B) The EPE peptide prevents tumor recurrence on melanoma xenograft. SCID mice were inoculated with A2352 cells. Upon establishment of tumors mice were treated intravenously with 15 mg/kg EPE peptide (n=7) or intraperitonealy with 15 mg/kg PLX4032 (n=5), at the indicated dose 3 times a week. Tumor size was recorded at the same time using a caliper. Following 3 weeks of treatment, mice were kept for further evaluation monitoring for any tumor recurrence of the effective treated melanoma xenografts. Experiment was concluded 110 days post inoculation (11 weeks after the last treatment) and the overall state of the animals was evaluated. sac=sacrificed, recur=recurrence, met=metastasis.
(§2) Tumor dimensions were measured with a digital sliding caliper.

HCT-116 xenograft = experiment: Tumor xenograft growth; type: in vivo, CD-1 nude mice; conditions: i.v. tail vein, 3 times a week
Method: as §1, §2

LOXIMVI xenograft = experiment: Tumor xenograft growth; type: in vivo, CD-1 nude mice; conditions: i.v. tail vein, 3 times a week
Method: as §1, §2

HeLa and T47D cells = experiment: Proliferation assay (Methylene Blue), optimal administration conditions; type: cell-based; conditions: administered every 24 h in fresh medium
Method: FIGS. 9A-9B illustrate the dose response of the EPE peptides on melanoma cells proliferation. LOXIMVI (FIG. 9A) and A2352 (FIG. 9B) melanoma cells were treated with the indicated doses of the EPE or Scr peptides. Presented as percent of viable cells at 72 h/initial cell number.
(§3) All cells, except of MCF-10A, were seeded into 12-well cell plates in 1% FBS medium. MCF-10A cells were seeded in their complete medium diluted 5 fold. DMSO, Scr peptide, EPE peptide, or U0126 (final concentration of 10 μM each) were added to the appropriated wells four hours later. Every day medium was changed to fresh one containing the same agents. The number of viable cells was measured by Methylene Blue assay at 72 h after cell seeding. Shortly, cells were fixed with 4% Formaldehyde for 2 h at 23° C., washed once with 0.1M Borate Buffer pH 8.5 and stained with of 1% Methylene Blue in 0.1M Borate Buffer for 10 min. Color was extracted by adding 0.1 M HCl for 3 h at 23° C., and examined at 595 nm. For time course experiments, viable cells were measured at 0, 24, 48, 72 and 96 h after cell seeding. For dose response experiments we treaded the cells with 0.1, 1, 3, 10, or 30 μM of peptides for 72 h, as described above.

[1] = tested on: non-transformed melanocytes (NHEM-Ad); experiment: Cell viability, EPE peptide compared with PLX4032; type: cell-based; conditions: EPE 10 μM, PLX4032 1 μM, 1% FCS
Method: FIGS. 3A-3B illustrate that EPE peptide prevents proliferation of cancer but not normal cells. (A) Effect of the EPE peptide on the proliferation of various cell lines. Sixteen cancer and four “normal” immortalized cell lines were treated with either EPE or scrambled peptides as described above. Viable cells were assayed by Methylene Blue at 48 or 72 hours after cell seeding. The data from at least three independent experiments is presented as percent of the amount of viable cells/initial cell number, where initial cell number was considered as 100. (B) Comparison of the effects of the EPE-peptide and Raf inhibitor PLX4032 on cell viability. NHEM-Ad, LOXIMVI, A2352, Hela MDA-MB-231, and DU-145 cells were treated with EPE peptide, scrambled peptide, (10 μM), PLX4032 (1 μM), DMSO control, or no treatment at 1% FCS. The number of cells was detected as above. The graphs present the kinetic of cell growth at the indicated times. All experiments were repeated 3 times in triplicates.
as §3

“GQLNHILGILGEPEQED (Synthetic peptide (EPE)) [EPE peptide, NTS-derived peptide with phosphomimetic EPE motif]” was tested, and the “apoptosis (TUNEL, PARP-1)” value (B-Raf mutated melanomas) was “enhanced apoptosis”, the “apoptosis relative to Taxol” value (B-Raf mutated melanomas) was “as strong as the apoptosis induced by Taxol” and the “ERK localization in xenograft tumor sections” value (ERK) was “localized almost exclusively in the cytoplasm”. The “growth of tumor xenograft” value (MDA-MB-231 xenograft) was “dose dependent inhibition of the growth”, the “growth of tumor xenograft” value (HCT-116 xenograft) was “to some extent” and the “growth of tumor xenograft” value (LOXIMVI xenograft) was “dose dependent inhibition of the growth”. For the same sequence, the “optimal administration conditions (maximal effect compared to Scr peptide)” value (HeLa and T47D cells) was 10 µM and the viability [1] was “does not have any significant effect”.
